“Also recorded” adds a separate entry of the source.
Assays:
THP1 cells = test: Cyto-ID autophagy detection assay, THP1 cells; type: cell-based, human; conditions: 4h incubation, resveratrol 80 μM, ONX-0914 0.25 μM
[1] = system: purified human 20S proteasome and immunoproteasome, PA activity; test: Purified proteasome fluorescence assay, PA activity; type: biochemical; conditions: 50 μM dose, cell-free
[2] = system: pIκBα in CD14+ human blood monocytes; test: pIκBα protein levels by immunoblot; type: cell-based; conditions: LPS 10 ng/ml-induced monocytes, resveratrol 80 μM or ONX-0914 0.25 μM, 60 min preincubation
[3] = system: CD14+ human blood monocytes; test: Gene expression by qRT-PCR in LPS-induced CD14+ monocytes; type: cell-based; conditions: for expression of Bax / expression of Bcl2 / proteasome subunits RNA (X, Y, Z): resveratrol 80 μM or ONX-0914 0.25 μM; for LPS-induced atg7 expression / LPS-induced expression of resistin / expression of ICAM-1 / expression of IFNγ / expression of IL-8 / expression of LMP10 subunit / expression of Sirt-1 / expression of TNF-α / mRNA expression of LMP2 subunit / mRNA expression of LMP7 subunit: resveratrol 80 μM or ONX-0914 0.25 μM pretreatment 1h, LPS 10 ng/mL 4h; for proteasome subunits RNA (X, Y, Z): with LPS 10 ng/mL 4h
[4] = system: purified human 20S proteasome and immunoproteasome, T-like activity; test: Purified proteasome fluorescence assay, T-like activity; type: biochemical
[5] = biological target: purified human 20S proteasome, PA activity (Homo sapiens, UniProt P28072); test: Purified proteasome fluorescence assay, PA activity, constitutive proteasome; type: biochemical
[6] = system: CD14+ human blood monocytes; test: Cyto-ID autophagy detection assay, blood monocytes; type: cell-based; conditions: 4h incubation, resveratrol 80 μM
[7] = system: T-like proteasome activity in THP1 cells; test: Cell-based proteasome activity, luminescence assay; parameters: species or system human; conditions: read-out: IC50, T-like activity (cellular), 30 min incubation
[8] = system: CT-like proteasome activity in THP1 cells; test: Cell-based proteasome activity, luminescence assay; parameters: species or system human; conditions: read-out: IC50, CT-like activity (cellular), 30 min incubation
[9] = biological target: purified human 20S immunoproteasome (LMP subunits), PA activity (Homo sapiens, UniProt P28065); test: Purified proteasome fluorescence assay, PA activity, immunoproteasome; type: biochemical
[10] = biological target: purified human 20S proteasome (X, Y and Z), CT-like activity (Homo sapiens, UniProt P28074); type: biochemical
[11] = biological target: purified human 20S immunoproteasome (LMP7, LMP2 and LMP10), CT-like activity (Homo sapiens, UniProt P28062); test: Purified proteasome fluorescence assay, CT-like activity, immunoproteasome; type: biochemical
monocytes = test: MTT and LDH cell death assay; conditions: 80 μM, human monocytes, MTT, LDH or autophagy tests
[12] = MTT and LDH cell death assay; conditions: human
[13] = system: PA proteasome activity in THP1 cells; test: Cell-based proteasome activity, luminescence assay; parameters: species or system human; conditions: read-out: IC50, PA activity (cellular), 30 min incubation

SMILES: COc1ccc(C[C@H](NC(=O)[C@H](C)NC(=O)CN2CCOCC2)C(=O)N[C@@H](Cc2ccccc2)C(=O)C2(C)CO2)cc1 (stereo in doubt) [ONX-0914, reference compound]
- induction of autophagy (THP1 cells): resulted in autophagy and vacuole accumulation
- inhibition of PA activity [1]: 30%
- degradation of pIκBα protein [2]: inhibited pIκBα protein degradation
- expression of Bax [3]: didn’t notice any effect
- expression of Bcl2 [3]: didn’t notice any effect
- LPS-induced atg7 expression [3]: but not by ONX-0914
- LPS-induced expression of resistin [3]: decreased
- expression of ICAM-1 [3]: significantly downregulated
- expression of IFNγ [3]: significantly downregulated
- expression of IL-8 [3]: significantly downregulated
- expression of LMP10 subunit [3]: no significant change
- expression of Sirt-1 [3]: no significant upregulation
- expression of TNF-α [3]: significantly downregulated
- mRNA expression of LMP2 subunit [3]: robust decrease
- mRNA expression of LMP7 subunit [3]: robust decrease
- proteasome subunits RNA (X, Y, Z) [3]: did not observe a significant change
- inhibition of T-like activity ([4]; highest dose of ONX-0914, cell-free): didn’t observe any inhibition

SMILES: Oc1ccc(C=Cc2cc(O)cc(O)c2)cc1 [resveratrol, 3,5, 4′-trihydroxystilbene]
- induction of autophagy (THP1 cells): did not induce autophagy
- IC50 [5]: 52.9 µM
- induction of autophagy [6]: did not induce autophagy
- degradation of pIκBα protein [2]: inhibited degradation of pIκBα protein levels
- IC50 [7]: 5 µM
- IC50 [8]: 1.9 µM
- IC50 [9]: 40.8 µM
- IC50 [10]: 59.4 µM
- IC50 [11]: 39.8 µM
- expression of Bax [3]: no change; also recorded: didn’t notice any effect
- expression of Bcl2 [3]: no change; also recorded: didn’t notice any effect
- LPS-induced atg7 expression [3]: downregulated
- LPS-induced expression of resistin [3]: decreased
- expression of ICAM-1 [3]: significantly downregulated
- expression of IFNγ [3]: significantly downregulated
- expression of IL-8 [3]: significantly downregulated
- expression of LMP10 subunit [3]: no significant change
- expression of Sirt-1 [3]: no significant upregulation
- expression of TNF-α [3]: significantly downregulated
- mRNA expression of LMP2 subunit [3]: robust decrease
- mRNA expression of LMP7 subunit [3]: robust decrease
- proteasome subunits RNA (X, Y, Z) [3]: did not observe a significant change
- expression of beclin1, eIF2α, p53 and hdac6 genes ([3]; resveratrol 80 μM, with or without LPS 10 ng/mL): no significant change
- cell death (monocytes): no cell death was observed
- viability at 4 h, 100 μM [12]: > 90%
- inhibition of T-like activity ([4]; 100 μM dose, cell-free): 33%
- IC50 [13]: 1.37 µM
